Values joined by “and” are separate entries in the source; they are usually repeats but may differ in a detail not shown here. Equal entries are not always repeated.
How the values were obtained:
Type in all cases: in vivo, Caenorhabditis elegans
[1] = tested on: glp-4(bn2) worms exposed to E. faecalis strain OG1RF; test: E. faecalis infection assay (liquid); settings: for E. faecalis EC: glp-4(bn2) worms, 80 h, ± 95% confidence interval
Procedure: Enterococcus faecalis and Staphylococcus aureus are Gram-positive bacterial species frequently responsible for nosocomial infections ([24], [25]). These bacterial species readily infect C. elegans and liquid-based pathogenesis models have been developed for each ([26][–][28]). Sterile, young adult glp-4(bn2) worms were incubated with either E. faecalis or S. aureus and various concentrations of the five compounds. […] Importantly, P. aeruginosa, E. faecalis, and S. aureus use very different mechanisms to kill C. elegans (pyoverdine-mediated mitochondrial damage, gelatinase-mediated damage to the colonized intestine, and multi-toxin-mediated intestinal effacement and damage, respectively) ([29][–][33]). The ability of these compounds to rescue against multiple pathogens that utilize a diverse set of virulence factors and mechanisms of pathogenesis further supports the idea that at least a portion of these compounds’ activity is mediated by stimulating innate immunity.
FIG 2 A subset of LK molecules rescue against E. faecalis and S. aureus. […] Compounds were serially diluted 2-fold, and young adult glp-4(bn2) worms were incubated with the pathogen for 80 h (E. faecalis) or 96 h (S. aureus). The concentrations shown are based on the mean value for at least three replicates. (B and C) Percentages of dead C. elegans after exposure to E. faecalis (B) or S. aureus (C). A representative biological replicate is shown. Each condition included at least six wells per replicate, each well contained approximately 20 worms. Three biological replicates were performed. *, P < 0.05; **, P < 0.01; ***, P < 0.001. P values were calculated using Student’s t test. Error bars represent the standard error of the mean.
The E. faecalis infection assay was performed as previously described ([27]). A single colony was used to inoculate a 5 ml of BHI liquid culture. After 16 to 24 h, 400 µl of this culture was spread on a BHI agar plate and placed at 37°C for 24 h. Next, 384-well plates were made containing 10% BHI, and E. faecalis was removed from the plate by scraping and resuspended in S Basal medium to a final OD of 0.03. Compounds at the desired concentrations or DMSO (final concentration, 1%) were then added to each well. After 3 days, the worms were transferred to new plates using a 0.05% Tween solution to prevent background fluorescence from E. faecalis biofilm. Subsequent washing, staining, imaging, and image analysis was performed identically to Pseudomonas liquid killing. EC values were defined as the minimum concentration that provided statistically significant rescue. At least three biological replicates were performed.

[2] = tested on: glp-4(bn2) worms exposed to P. aeruginosa isolate PA2-61; test: Liquid killing assay with cystic fibrosis isolate; settings: isolate PA2-61, serial 2-fold dilutions from 50 µM to 12.5 μM
Procedure: We also tested these strains against a P. aeruginosa isolate from a pediatric cystic fibrosis patient, P. aeruginosa PA2-61, that we previously characterized ([22]).
The minimum effective concentration was calculated from the lowest concentration that retained statistically significant rescue of glp-4(bn2) C. elegans, a temperature-sensitive sterile strain, from exposure to P. aeruginosa PA14. […] Compounds were added in serial 2-fold dilutions from 50 µM to 12.5 μM. *, P < 0.05; **, P < 0.01; ***, P < 0.001. P values were calculated using Student’s t test. At least six wells containing 20 worms each per condition per replicate were used for determination of liquid killing. EC values were calculated based on at least three biological replicates. Error bars represent the standard error of the mean.
Liquid killing of C. elegans was performed as previously described with some changes ([91]). In brief, an overnight culture of LB medium was inoculated with a single colony of Pseudomonas aeruginosa strain PA14. Then, 400 µl of culture was spread onto a 10-cm slow-kill agar plate ([91]) and grown for 24 h at 37°C, followed by 24 h at 25°C. Bacteria were scraped from the plate, resuspended in S Basal medium, and added to 384-well plates with small molecules dissolved in DMSO. Solution in wells contained a final concentration of 40% SK media, 59% S Basal medium, 1% DMSO, and small molecules. For all liquid-based killing assays, solvent control wells contained 1% DMSO. MgSO4 and CaCl2 (300 µM) and cholesterol (1.6 µg/ml) were added to aid in production of virulence factors. Worms were sorted into 384-well plates using a COPAS FlowSort (Union Biometrica, Holliston, MA), incubated at 25°C until the DMSO control was roughly 35 to 55% dead, washed four times using an EL406 microplate washer (BioTek, VT), and stained with 50 μl of Sytox Orange at 1 µM to fluorescently stain dead worms. Wells were imaged in bright-field and RFP channels using the BioTek Cytation5, followed by image analysis using the CellProfiler software package to calculate fraction of dead worms in each well. […]

[3] = tested on: glp-4(bn2) worms reared on RNAi, exposed to P. aeruginosa PA14; test: P. aeruginosa liquid killing assay after RNAi knockdown; settings: for Rescue in liquid killing after RNAi of a panel of phosphatases, kinases, transcription factors and most upregulated genes: Fig S4A; for Rescue in liquid killing after mdt-15(RNAi): P. aeruginosa PA14, LK56 at 32 µM
From the text: Based on the presence of effectors for well-known innate immune pathways in the transcriptional profiles of C. elegans exposed to LK molecules, we predicted that the compounds were acting through one or more of these pathways, despite the low levels of reporter activation. To test this, RNAi was used to knock down daf-16/FOXO, elt-2/GATA, pmk-1/p38 MAPK, atf-7/ATF7, or skn-1/Nrf2. Sterile, young adult glp-4(bn2) worms were then exposed to P. aeruginosa under liquid killing conditions in the presence of either DMSO or one of the immunostimulatory compounds.
RNAi conditions measured at different time points are represented by different graphs within the same panel. […] At least six wells, containing 20 worms each, were used per biological replicate to determine survival for each condition, and averages from at least three biological replicates are shown. *, P < 0.05; **, P < 0.01; ***, P < 0.001. P values were calculated using Student’s t test. Error bars represent standard error of the mean.
(A) Sterile, young adult glp-4(bn2) worms were reared on RNAi targeting irid-28, F38B2.4, T24B8.5, mex-5, Y105C5B.15, comt-4, or empty vector and then exposed to P. aeruginosa in the liquid killing assay. (B) Sterile, young adult glp-4(bn2) worms were reared on RNAi targeting met-2, osm-8, rde-4, oga-1, daf-2, lin-35, glp-1, dpy-10, or dpy-9 and then exposed to P. aeruginosa in the liquid killing assay. These genes were chosen using WormEXP with the criterion that gene expression after mutation would be similar (in terms of upregulation and downregulation) to exposure to LK56. Endpoints were collected at different times (to allow DMSO-treated worms to be approximately 30 to 50% dead). Assays collected at different time points are shown on different graphs. […] For each experiment, three biological replicates were performed, with each replicate comprised of six wells with 20 worms/well. Error bars represent standard error of the mean. *, P < 0.05; **, P < 0.01; ***, P < 0.001. P values were calculated using Student’s t test. Download FIG S4, PDF file, 0.2 MB.
Due to its strong rescue and unique transcriptional profile, we also created a panel of genes to test for LK56. […] This effect was specific, since mdt-15(RNAi) had no effect on the ability of LK35 or LK38 to rescue in this assay (Fig. 7B). Importantly, MDT-15 was also required for LK56-mediated rescue in E. faecalis and S. aureus pathogenesis assays (Fig. 7C).
FIG 7 Rescue from pathogens by LK56 requires […]. (A and B) Young adult glp-4(bn2) worms reared on vector or mdt-15(RNAi) were incubated with P. aeruginosa strain PA14 in the liquid killing assay with or without LK56 at 32 µM. (B) Young adult glp-4(bn2) worms reared on vector or mdt-15(RNAi) were exposed to P. aeruginosa PA14 in the liquid killing assay in the presence of LK35, LK38, or DMSO. (C) Young adult glp-4(bn2) worms reared on vector or mdt-15(RNAi) and then exposed to E. faecalis or S. aureus in liquid-based assays in the presence or absence of LK56 at 32 µM. (D) Young adult glp-4(bn2) worms reared on vector, nhr-49(RNAi), or nhr-45(RNAi) were incubated with P. aeruginosa PA14 in the liquid killing assay with or without LK56 at 32 µM. Each replicate included at least six wells, with approximately 20 worms per well. The data shown are mean values from a representative replicate. *, P < 0.05; **, P < 0.01; ***, P < 0.001. P values were calculated using Student’s t test. Error bars represent the standard error of the mean. At least three biological replicates were performed.
MDT-15 partners with at least two different nuclear hormone receptors, NHR-45 and NHR-49, to regulate gene expression.

SMILES | E. faecalis EC [1] | Dose dependence of rescue in liquid killing [2] | Rescue in liquid killing after RNAi of a panel of phosphatases, kinases, transcription factors and most upregulated genes [3] | Rescue in liquid killing after mdt-15(RNAi) [3] | Rescue in liquid killing after nhr-49(RNAi) ([3]; P. aeruginosa PA14, 32 µM) | Need of MDT-15 for rescue (mdt-15(RNAi)) ([1]; E. faecalis, 32 µM)
COC(=O)/C=C/C(=O)Nc1ccccc1 [LK32] | 8 µM and 8 ± 0.0 µM | – | – | – | – | –
CNC(=O)Oc1c(Br)cc2sc(=O)oc2c1Br [LK34] | 18.7 µM and 18.7 ± 8.7 µM | dose-dependent rescue | rescue was unchanged | – | – | –
CCN(CC)/N=N/c1ccc(C(=O)O)cc1 [LK35] | > 64 µM | – | rescue was unchanged | no effect | – | –
CN(C)/N=N/c1ccc(-c2cn(Cc3ccccc3)cn2)cc1 [LK38] | > 64 µM | dose-dependent rescue | rescue was unchanged | no effect | – | –
O=c1cc(CNc2ccc(Br)cc2)nc2sccn12 [LK56] | 10.7 µM and 10.7 ± 3.3 µM | dose-dependent rescue | – | completely abolish LK56-dependent rescue | abolished compound rescue | required
